From BindingDB's records for doi:10.1016/j.bmcl.2009.01.012 (Pfizer, 2009) come the findings set out here.

This experiment is described as follows: Antagonist activity at human recombinant CCR5 expressed in human HeLa-P4 cells assessed as inhibition of human HeLa-P4 cells binding to HIV1 gp160 expressing CHO cells by cell-cell fusion assay.
On to `Cc1cccc(C)c1C(=O)N1CCC(N2CC[C@@H](N(Cc3ccccc3)C(=O)C3CC3)C2)CC1` [(R)-N-benzyl-N-(1-(1-(2,6-dimethylbenzoyl)piperidin-4-yl)pyrrolidin-3-yl)cyclopropanecarboxamide], for which the IC50 was found to be 1 nM. The result for `Cc1ccnc(C)c1C(=O)N1CCC(N(C)C2CN(C(c3ccccc3)c3ccccc3)C2)CC1` [(4-((1-benzhydrylazetidin-3-yl)(methyl)amino)piperidin-1-yl)(2,4-dimethylpyridin-3-yl)methanone] reads 24 nM; that for `Cc1cccc(C)c1C(=O)N1CCC(N2CC(N(Cc3ccccc3)C(=O)C3CC3)C2)CC1` [N-benzyl-N-(1-(1-(2,6-dimethylbenzoyl)piperidin-4-yl)azetidin-3-yl)cyclopropanecarboxamide], 5800 nM; that for `Cc1ccnc(C)c1C(=O)NCCN1CCCC(CC(c2ccccc2)c2ccccc2)C1` (racemic) [rac-N-(2-(3-(2,2-diphenylethyl)piperidin-1-yl)ethyl)-2,4-dimethylnicotinamide], 56 nM. As for `Cc1ccnc(C)c1C(=O)N1CCC(N2CC3CCC(C2)N3C(c2ccccc2)c2ccccc2)CC1` [(4-(8-benzhydryl-3,8-diazabicyclo[3.2.1]octan-3-yl)piperidin-1-yl)(2,4-dimethylpyridin-3-yl)methanone], the figure is 313 nM. The result for `Cc1cccc(C)c1C(=O)N1[C@@H]2CC[C@H]1C[C@H](N1CC[C@@H](N(Cc3ccccc3)C(=O)C3CC3)C1)C2` [exo-N-benzyl-N-((R)-1-(8-(2,6-dimethylbenzoyl)-8-azabicyclo[3.2.1]octan-3-yl)pyrrolidin-3-yl)cyclopropanecarboxamide] reads 1 nM. As to `Cc1cccc(C)c1C(=O)N1CCC(N2CC[C@H](N(Cc3ccccc3)C(=O)C3CC3)C2)CC1` [(S)-N-benzyl-N-(1-(1-(2,6-dimethylbenzoyl)piperidin-4-yl)pyrrolidin-3-yl)cyclopropanecarboxamide], the half-maximal inhibitory concentration (IC50) worked out at 1230 nM. The result for `Cc1cccc(C)c1C(=O)N1CCC(N2CCC(CNC(=O)C3CC3)(Cc3ccccc3)CC2)CC1` [N-((4-benzyl-1'-(2,6-dimethylbenzoyl)-1,4'-bipiperidin-4-yl)methyl)cyclopropanecarboxamide] reads 145 nM; that for `Cc1ccnc(C)c1C(=O)N1CC(N(C)C2CCN(C(c3ccccc3)c3ccccc3)CC2)C1` [(3-((1-benzhydrylpiperidin-4-yl)(methyl)amino)azetidin-1-yl)(2,4-dimethylpyridin-3-yl)methanone], 102 nM; that for `Cc1cccc(C)c1C(=O)N1CCC(N2CCC(N(Cc3ccccc3)C(=O)C3CCC3)CC2)CC1` [N-benzyl-N-(1'-(2,6-dimethylbenzoyl)-1,4'-bipiperidin-4-yl)cyclobutanecarboxamide], 3 nM. As for `CC(=O)NC(c1ccccc1)C1CN(C2CCN(C(=O)c3c(C)cccc3C)CC2)C1` (stereo not drawn) [N-((1-(1-(2,6-dimethylbenzoyl)piperidin-4-yl)azetidin-3-yl)(phenyl)methyl)acetamide], the figure is 2490 nM. As for `Cc1cccc(C)c1C(=O)N1CCC(C)(N2CCC(N(Cc3ccccc3)C(=O)C3CC3)CC2)CC1` [N-benzyl-N-(1'-(2,6-dimethylbenzoyl)-4'-methyl-1,4'-bipiperidin-4-yl)cyclopropanecarboxamide], the figure is 0.5 nM; as for `Cc1ccnc(C)c1C(=O)N1CCC(N2C3CCC2CN(C(c2ccccc2)c2ccccc2)C3)CC1` [(4-(3-benzhydryl-3,8-diazabicyclo[3.2.1]octan-8-yl)piperidin-1-yl)(2,4-dimethylpyridin-3-yl)methanone], 41 nM.
